Assay results reported in patent publication US4569907A, “Thiopeptolide substrates for vertebrate collagenase” (Monsanto Company, priority 1984, dated 1986).
Non-standard residues stand in square brackets, D forms with d. Residues, ends and D or L forms follow the SMILES beside them. *: point of attachment. Dnp = O=[N+]([O-])c1ccc(*)c([N+](=O)[O-])c1

Columns and labels:
Format in all cases: biochemical
collagenase = target: T1, collagenase (Homo sapiens, UniProt P03956); assay: HPLC assay of substrate hydrolysis by collagenase (comparison substrates without chromophores); conditions: Table I Comparison of Substrate; assayed by HPLC
T1 construct: endogenous in cells; host or cells: normal human skin fibroblasts (culture media)
T1 sequence (P03956 100-469): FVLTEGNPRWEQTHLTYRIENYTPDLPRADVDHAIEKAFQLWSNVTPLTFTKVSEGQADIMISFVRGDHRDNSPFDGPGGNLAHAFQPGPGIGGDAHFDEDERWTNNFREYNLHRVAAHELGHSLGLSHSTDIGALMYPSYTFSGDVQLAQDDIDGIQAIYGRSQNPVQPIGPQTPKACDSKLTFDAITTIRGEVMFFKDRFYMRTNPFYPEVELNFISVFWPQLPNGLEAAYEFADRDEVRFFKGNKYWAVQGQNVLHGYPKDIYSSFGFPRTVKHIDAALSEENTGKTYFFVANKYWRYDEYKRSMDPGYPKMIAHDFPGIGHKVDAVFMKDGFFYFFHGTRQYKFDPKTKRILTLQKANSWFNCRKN
Experimental: (§1) The following Table I sets forth the relative rates of hydrolysis in the above spectrophotometric assay using ther above thiopeptolides as substrates in comparison to the rates of hydrolysis assayed by High Performance Liquid Chromatography (HPLC) of two commercially available substrates for collagenase and two other substrates described in copending application Ser. No. 450,318, cited hereinbefore.

[1] = target: T2, Collagenase from culture media of normal human skin fibroblasts (Homo sapiens, UniProt P03956); assay: Spectrophotometric assay for collagenase: hydrolysis of thiopeptolide substrates with 4,4'-dithiodipyridine or Ellman's reagent; conditions: for Relative Rate (of hydrolysis): Table I Comparison of Substrate, spectrophotometric assay, pH 6.5-7.0, initial rates
T2 construct: endogenous in cells; host or cells: normal human skin fibroblasts (culture media)
T2 sequence (P03956 100-469): T1 sequence (P03956 100-469)
Experimental: Collagenase was prepared from culture media of normal human skin fibroblasts substantially according to the procedure of Stricklin et al., Biochem. 16 1607 (1977). The enzyme (23 μg/ml in 0.5 M tris buffer [tris(hydroxymethyl) amino methane], 0.01 M CaCl2, pH 7.5) was activated by incubating 10 μl samples with one μl of trypsin (10 mg/ml in 1 mM HCl) for twenty minutes at room temperature followed by addition of 20 μl of soybean trypsin inhibitor (5 mg/ml in 0.05 M tris buffer, 0.01 M CaCl2, pH 7.5).
The activated enzyme was diluted 100 to 2000 fold for use with each of the following substrate thiopeptolides:
(§2) The spectrophotometric assay was carried out at substrate concentrations of from 0.01 mM to 5 mM in 0.05 M HEPES buffer (N-2-hydroxyethylpiperizine-N'-2-ethanesulfonic acid) with 0.01 M CaCl2 at a pH of 6.5-7.0 and containing 0.5 mM to 1.0 mM 4,4'-dithiodipyridine (or Ellman's Reagent). The total reaction volume was 250 μl including 10 to 100 μl of the diluted activated enzyme. The reaction solutions were placed in 10 mm pathlength, self-masking microcuvettes and the hydrolysis followed using a Gilford model 250 spectrophotometer at 324 λ(410 λ for Ellman's Reagent) and equipped with a Gilford model 6051 recorder. The initial rates were limited to the first 5% of reaction and were corrected for non-enzymatic hydrolysis, which never exceeded 25% of the total reaction at pH 6.5-7.0. The 4,4'dithiodipyridine (or Ellman's Reagent) at 0.5 mM was in large excess under the initial rate assay conditions and was not rate limiting.
as §1

Trypsin = target: T3, Trypsin (Bos taurus, UniProt P00760); assay: Enzyme selectivity for thiopeptolide, spectrophotometric hydrolysis; conditions: Table II Enzyme Selectivity
T3 sequence (P00760 24-246): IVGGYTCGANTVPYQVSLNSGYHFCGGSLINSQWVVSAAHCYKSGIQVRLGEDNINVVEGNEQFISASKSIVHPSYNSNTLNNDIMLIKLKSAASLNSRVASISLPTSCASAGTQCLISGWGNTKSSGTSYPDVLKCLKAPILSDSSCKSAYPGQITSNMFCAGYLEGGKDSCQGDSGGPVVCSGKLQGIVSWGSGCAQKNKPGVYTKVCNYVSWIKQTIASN
Experimental: as §2
(§3) The ability of five proteolytic enzymes other than collagenase to cleave the synthetic substrate Ac-Pro-Leu-Gly-S-Leu-Leu-Gly-OC2 H5 was tested by hydrolysis and following spectrophotometrically as in Example 14. The following Table II sets forth the relative selectivity of these enzymes in comparison to vertebrate collagenase.

Carboxypeptidase Y = target: T4, Carboxypeptidase Y (Saccharomyces cerevisiae, UniProt P00729); assay: as above; conditions: Table II Enzyme Selectivity
T4 sequence (P00729 112-532): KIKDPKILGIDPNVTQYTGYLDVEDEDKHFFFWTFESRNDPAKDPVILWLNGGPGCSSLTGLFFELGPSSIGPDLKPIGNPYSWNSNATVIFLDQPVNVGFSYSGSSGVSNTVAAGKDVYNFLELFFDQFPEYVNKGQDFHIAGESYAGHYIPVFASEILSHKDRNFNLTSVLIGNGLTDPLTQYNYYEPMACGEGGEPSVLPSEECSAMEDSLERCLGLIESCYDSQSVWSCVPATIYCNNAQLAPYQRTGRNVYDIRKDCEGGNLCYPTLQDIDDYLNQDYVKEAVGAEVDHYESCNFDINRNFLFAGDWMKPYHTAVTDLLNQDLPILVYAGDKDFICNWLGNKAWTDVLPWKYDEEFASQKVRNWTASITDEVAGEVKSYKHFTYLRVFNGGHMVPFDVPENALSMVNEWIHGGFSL
Experimental: as §2, §3

Elastase = assay: as above; conditions: Table II Enzyme Selectivity
Experimental: as §2, §3

α-Chymotrypsin = α-Chymotrypsin (Bos taurus, UniProt P00766); assay: as above; conditions: Table II Enzyme Selectivity
Experimental: as §2, §3

Kallikrein = assay: as above; conditions: Table II Enzyme Selectivity
Experimental: as §2, §3

vertebrate collagenase = target: T5, vertebrate collagenase (Homo sapiens, UniProt P03956); assay: Inhibition of vertebrate collagenase (I50, median inhibitory concentration)
T5 sequence (P03956 100-469): T1 sequence (P03956 100-469)

Molecule	Relative Rate (of hydrolysis) (collagenase)	Relative Rate (of hydrolysis) [1]	other results
CCOC(=O)CNC(=O)[C@H](C)NC(=O)[C@H](CC(C)C)NC(=O)CNC(=O)[C@H](CC(C)C)NC(=O)[C@@H]1CCCN1C(C)=O [Ac--Pro--Leu--Gly--Leu--Ala--Gly--OC2 H5] (Ac-PLGLAG-OEt)	110	–	–
CCOC(=O)CNC(=O)[C@H](CC(C)C)NC(=O)[C@H](CC(C)C)NC(=O)CNC(=O)[C@H](CC(C)C)NC(=O)[C@@H]1CCCN1C(C)=O [Ac--Pro--Leu--Gly--Leu--Leu--Gly--OC2 H5] (Ac-PLGLLG-OEt)	250	–	–
CCOC(=O)CNC(=O)[C@H](C)NC(=O)[C@H](CC(C)C)SC(=O)CNC(=O)[C@H](C)NC(=O)[C@@H]1CCCN1C(C)=O [Ac-Pro-Ala-Gly-S-Leu-Ala-Gly-OC2 H5]	–	950	–
CCOC(=O)CNC(=O)[C@H](Cc1ccccc1)NC(=O)[C@H](CC(C)C)SC(=O)CNC(=O)[C@H](C)NC(=O)[C@@H]1CCCN1C(C)=O [Ac-Pro-Ala-Gly-S-Leu-Phe-Gly-OC2 H5]	–	2800	–
CCOC(=O)CNC(=O)[C@H](CC(C)C)NC(=O)[C@H](CC(C)C)SC(=O)CNC(=O)[C@H](CC(C)C)NC(=O)[C@@H]1CCCN1C(C)=O [Ac-Pro-Leu-Gly-S-Leu-Leu-Gly-OC2 H5]	–	8800	Relative Rate (Trypsin): 0.07; Relative Rate (Carboxypeptidase Y): 0.03; Relative Rate (Elastase): 12; Relative Rate (α-Chymotrypsin): 2.0; Relative Rate (Kallikrein): 4.3; Relative Rate ([1]; Table II Enzyme Selectivity, Vertebrate Collagenase, same as in Example 14): 260
CCOC(=O)CNC(=O)[C@H](Cc1ccccc1)NC(=O)[C@H](CC(C)C)SC(=O)CNC(=O)[C@H](CC(C)C)NC(=O)[C@@H]1CCCN1C(C)=O [Ac-Pro-Leu-Gly-S-Leu-Phe-Gly-OC2 H5]	–	5900	–
CCOC(=O)CNC(=O)[C@H](CC(C)C)NC(=O)[C@@H](S)CC(C)C [HS-Leu-Leu-Gly-OC2 H5]	–	–	IC50 (vertebrate collagenase): 1 µM
DNP-Pro-Gln-Gly-Ile-Ala-Gly-Gln-D-Arg-OH (Dnp-PQGIAGQ[dR]-OH; SMILES CC[C@H](C)[C@H](NC(=O)CNC(=O)[C@H](CCC(N)=O)NC(=O)[C@@H]1CCCN1c1ccc([N+](=O)[O-])cc1[N+](=O)[O-])C(=O)N[C@@H](C)C(=O)NCC(=O)N[C@@H](CCC(N)=O)C(=O)N[C@H](CCCNC(=N)N)C(=O)O) [commercially available synthetic collagenase substrate, Peninsula Laboratories; DNP=Dinitrophenyl]	5	–	–
DNP-Pro-Leu-Gly-Ile-Ala-Gly-Arg-NH2 (Dnp-PLGIAGR-NH2; SMILES CC[C@H](C)[C@H](NC(=O)CNC(=O)[C@H](CC(C)C)NC(=O)[C@@H]1CCCN1c1ccc([N+](=O)[O-])cc1[N+](=O)[O-])C(=O)N[C@@H](C)C(=O)NCC(=O)N[C@@H](CCCNC(=N)N)C(N)=O) [commercially available synthetic collagenase substrate, Peninsula Laboratories; DNP=Dinitrophenyl]	25	–	–
